Measured values taken from ChEMBL document CHEMBL3792335, “L-Aspartic and l-glutamic acid ester-based ProTides of anticancer nucleosides: Synthesis and antitumoral evaluation” (Bioorg Med Chem Lett, 2016).

What was measured:
Jurkat = test: Cytotoxicity against human Jurkat cells assessed as reduction in cell viability after 72 hrs by MTS assay; assay type: functional, cell-based
[1] = Cytotoxicity against human PC3 cells assessed as reduction in cell viability after 72 hrs by MTS assay; assay type: functional, cell-based; settings: PC-3, 72 h
Ramos = test: Cytotoxicity against human Ramos cells assessed as reduction in cell viability after 72 hrs by MTS assay; assay type: functional, cell-based
[2] = Cytotoxicity against human U87 cells assessed as reduction in cell viability after 72 hrs by MTS assay; assay type: functional, cell-based, U-87MG ATCC; settings: U-87 MG
A549 = test: Cytotoxicity against human A549 cells assessed as reduction in cell viability after 72 hrs by MTS assay; assay type: functional, cell-based; settings: A549, 72 h

Row | SMILES | EC50 (Jurkat) | EC50 [1] | EC50 (Ramos) | EC50 [2] | EC50 (A549)
1 | CCOC(=O)CC[C@H](NP(=O)(OC[C@H]1O[C@@H](n2ccc(N)nc2=O)C(F)(F)[C@@H]1O)Oc1ccccc1)C(=O)OCC (stereo not given in full) | 0.129 µM | 2.3 µM | 365 nM | > 100 µM | > 100 µM
2 | CC(C)CCOC(=O)CC[C@H](NP(=O)(OC[C@H]1O[C@@H](n2ccc(N)nc2=O)C(F)(F)[C@@H]1O)Oc1ccccc1)C(=O)OCCC(C)C (stereo not given in full) | 1.2 µM | 10.9 µM | 1200 nM | > 100 µM | > 100 µM
3 | CC(C)CCOC(=O)C[C@H](NP(=O)(OC[C@H]1O[C@@H](n2cc(F)c(=O)[nH]c2=O)C[C@@H]1O)Oc1ccccc1)C(=O)OCCC(C)C (stereo not given in full) | 1.1 µM | 22.7 µM | 724 nM | 10.1 µM | 43.4 µM
4 | CC(C)CCOC(=O)[C@H](CC(=O)OCc1ccccc1)NP(=O)(OC[C@H]1O[C@@H](n2ccc(N)nc2=O)C(F)(F)[C@@H]1O)Oc1ccccc1 (stereo not given in full) | 0.209 µM | 3.8 µM | 700 nM | 43.7 µM | > 100 µM
5 | CC(C)CCOC(=O)C[C@H](NP(=O)(OC[C@H]1O[C@@H](n2ccc(N)nc2=O)C(F)(F)[C@@H]1O)Oc1ccccc1)C(=O)OCc1ccccc1 (stereo not given in full) | 0.21 µM | 3.6 µM | 813 nM | > 100 µM | > 100 µM
6 | CC(C)CCOC(=O)C[C@H](NP(=O)(OC[C@H]1O[C@@H](n2cc(I)c(=O)[nH]c2=O)C[C@@H]1O)Oc1ccccc1)C(=O)OCCC(C)C (stereo not given in full) | 14.7 µM | 33.3 µM | 13600 nM | 38 µM | 27 µM
7 | CC(C)CCOC(=O)C[C@H](NP(=O)(OC[C@H]1O[C@@H](n2cc(/C=C/Br)c(=O)[nH]c2=O)C[C@@H]1O)Oc1ccccc1)C(=O)OCCC(C)C (stereo not given in full) | 5.2 µM | 12.5 µM | 6300 nM | 12.8 µM | 9.9 µM
8 | CC(C)CCOC(=O)C[C@H](NP(=O)(OC[C@H]1O[C@@H](n2ccc(N)nc2=O)C(F)(F)[C@@H]1O)Oc1ccccc1)C(=O)OCCC(C)C (stereo not given in full) | 0.294 µM | 3.5 µM | 294 nM | 43.3 µM | > 100 µM
9 | O=c1[nH]c(=O)n([C@H]2C[C@H](O)[C@@H](CO)O2)cc1/C=C/Br [BRIVUDINE] | > 100 µM | > 100 µM | > 100000 nM | > 100 µM | > 100 µM
10 | O=c1[nH]c(=O)n([C@H]2C[C@H](O)[C@@H](CO)O2)cc1F [FLOXURIDINE] | 0.00333 µM | 86.9 µM | 7.51 nM | 18.2 µM | 60.8 µM
11 | Nc1ccn([C@@H]2O[C@H](CO)[C@@H](O)C2(F)F)c(=O)n1 [GEMCITABINE] | 0.023 µM | 0.065 µM | 0.03 nM | > 100 µM | > 100 µM
12 | O=c1[nH]c(=O)n([C@H]2C[C@H](O)[C@@H](CO)O2)cc1I [IDOXURIDINE] | 79.7 µM | > 100 µM | 47900 nM | > 100 µM | > 100 µM
